Test results as given in patent US6525001B1, “Substituted pyrimidine and pyridine herbicides” (Mid-American Commercialization Corporation, priority 1997, dated 2003).

Columns and labels:
Assay in all cases: Test B pre-/postemergence
Assay type in all cases: in vivo
Set-up in all cases: key: 0 is no effect; 10 is complete control
soybean (Glycine max) = system: soybean (Glycine max)
In short: (§1)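 Seeds were planted and sprayed preemergence, while plants at 2 to 18 cm (1- to 4-leaf stage) were sprayed postemergence at the same time, with test chemical in a non-phytotoxic solvent mixture containing surfactant. After twelve to sixteen days in a greenhouse, injury was rated visually against untreated controls on a 0–10 scale.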

[1] = system: broadleaf signalgrass (Brachiaria decumbens); conditions: for B. signalgrass plant response rating: Preemergence
In short: as §1

[2] = system: blackgrass (Alopecurus myosuroides); conditions: for Blackgrass plant response rating: Preemergence
In short: as §1

[3] = system: giant foxtail (Setaria faberii)
In short: as §1

[4] = system: pigweed (Amaranthus retroflexus)
In short: as §1

[5] = system: sugar beet (Beta vulgaris)
In short: as §1

corn (Zea mays) = conditions: for Corn plant response rating: Preemergence
In short: as §1

[6] = system: crabgrass (Digitaria sanguinalis); conditions: for Crabgrass plant response rating: Preemergence
In short: as §1

[7] = system: bedstraw (Galium aparine); conditions: for Bedstraw plant response rating: Preemergence
In short: as §1

[8] = system: wheat (Triticum aestivum)
In short: as §1

rape (Brassica napus) = system: rape (Brassica napus)
In short: as §1

[9] = system: momingglory (Ipomoea hederacea)
In short: as §1

[10] = system: cocklebur (Xanthium strumarium); conditions: for Cocklebur plant response rating: Preemergence
In short: as §1

[11] = system: velvetleaf (Abutilon theophrasti)
In short: as §1

[12] = Rate 250 g/ha, Postemergence (so in the source)
[13] = Rate 250 g/ha, Postemergence as printed in head r139 (second section for compounds 26-50)

Cc1cnc(-n2cnc(C(F)(F)F)c2)nc1Cc1cccc(C(F)(F)F)c1 [Compound 44]
Plant response rating, Soybean (soybean (Glycine max); Rate 62 g/ha, Postemergence): 5
Soybean plant response rating (soybean (Glycine max); Rate 62 g/ha, Preemergence): 0
Soybean plant response rating (soybean (Glycine max); Rate 125 g/ha, Postemergence): 6
Plant response rating, Soybean (soybean (Glycine max); Rate 125 g/ha, Preemergence): 2
Plant response rating, Soybean (soybean (Glycine max); Rate 250 g/ha, Postemergence): 6
Plant response rating, Soybean (soybean (Glycine max); [12]): 2
Plant response rating, B. signalgrass ([1]; Rate 62 g/ha, Postemergence): 3
B. signalgrass plant response rating ([1]; Rate 62 g/ha): 6
Plant response rating, B. signalgrass ([1]; Rate 125 g/ha, Postemergence): 4
B. signalgrass plant response rating ([1]; Rate 125 g/ha): 8
Plant response rating, B. signalgrass ([1]; Rate 250 g/ha, Postemergence): 5
Plant response rating, B. signalgrass [1, 13]: 8
Plant response rating, Blackgrass ([2]; Rate 62 g/ha, Postemergence): 4
Blackgrass plant response rating ([2]; Rate 62 g/ha): 5
Plant response rating, Blackgrass ([2]; Rate 125 g/ha, Postemergence): 5
Blackgrass plant response rating ([2]; Rate 125 g/ha): 6
Plant response rating, Blackgrass ([2]; Rate 250 g/ha, Postemergence): 7
Plant response rating, Blackgrass [2, 12]: 9
Plant response rating, Giant foxtail ([3]; Rate 62 g/ha, Postemergence): 2
Giant foxtail plant response rating ([3]; Rate 62 g/ha, Preemergence): 4
Giant foxtail plant response rating ([3]; Rate 125 g/ha, Postemergence): 7
Giant foxtail plant response rating ([3]; Rate 125 g/ha, Preemergence): 5
Plant response rating, Giant foxtail ([3]; Rate 250 g/ha, Postemergence): 9
Plant response rating, Giant foxtail [3, 12]: 9
Plant response rating, Redroot pigweed ([4]; Rate 62 g/ha, Postemergence): 9
Redroot pigweed plant response rating ([4]; Rate 62 g/ha, Preemergence): 7
Redroot pigweed plant response rating ([4]; Rate 125 g/ha, Postemergence): 10
Redroot pigweed plant response rating ([4]; Rate 125 g/ha, Preemergence): 9
Plant response rating, Redroot pigweed ([4]; Rate 250 g/ha, Postemergence): 10
Plant response rating, Redroot pigweed [4, 12]: 10
Plant response rating, Sugarbeets ([5]; Rate 62 g/ha, Postemergence): 10
Sugarbeets plant response rating ([5]; Rate 62 g/ha, Preemergence): 9
Sugarbeets plant response rating ([5]; Rate 125 g/ha, Postemergence): 10
Plant response rating, Sugarbeets ([5]; Rate 125 g/ha, Preemergence): 10
Plant response rating, Sugarbeets ([5]; Rate 250 g/ha, Postemergence): 10
Plant response rating, Sugarbeets [5, 12]: 10
Plant response rating, Corn (corn (Zea mays); Rate 62 g/ha, Postemergence): 3
Corn plant response rating (corn (Zea mays); Rate 62 g/ha): 0
Plant response rating, Corn (corn (Zea mays); Rate 125 g/ha, Postemergence): 3
Corn plant response rating (corn (Zea mays); Rate 125 g/ha): 1
Plant response rating, Corn (corn (Zea mays); Rate 250 g/ha, Postemergence): 3
Plant response rating, Corn (corn (Zea mays); [12]): 1
Plant response rating, Crabgrass ([6]; Rate 62 g/ha, Postemergence): 3
Crabgrass plant response rating ([6]; Rate 62 g/ha): 4
Plant response rating, Crabgrass ([6]; Rate 125 g/ha, Postemergence): 4
Crabgrass plant response rating ([6]; Rate 125 g/ha): 4
Plant response rating, Crabgrass ([6]; Rate 250 g/ha, Postemergence): 7
Plant response rating, Crabgrass [6, 12]: 9
Plant response rating, Bedstraw ([7]; Rate 62 g/ha, Postemergence): 8
Bedstraw plant response rating ([7]; Rate 62 g/ha): 4
Plant response rating, Bedstraw ([7]; Rate 125 g/ha, Postemergence): 9
Bedstraw plant response rating ([7]; Rate 125 g/ha): 5
Plant response rating, Bedstraw ([7]; Rate 250 g/ha, Postemergence): 9
Plant response rating, Bedstraw [7, 12]: 10
Wheat plant response rating ([8]; Rate 62 g/ha, Postemergence): 3
Wheat plant response rating ([8]; Rate 62 g/ha, Preemergence): 0
Wheat plant response rating ([8]; Rate 125 g/ha, Postemergence): 3
Plant response rating, Wheat ([8]; Rate 125 g/ha, Preemergence): 1
Plant response rating, Wheat ([8]; Rate 250 g/ha, Postemergence): 3
Plant response rating, Wheat [8, 12]: 3
Plant response rating, Rape (rape (Brassica napus); Rate 62 g/ha, Postemergence): 9
Rape plant response rating (rape (Brassica napus); Rate 62 g/ha, Preemergence): 4
Rape plant response rating (rape (Brassica napus); Rate 125 g/ha, Postemergence): 10
Rape plant response rating (rape (Brassica napus); Rate 125 g/ha, Preemergence): 8
Plant response rating, Rape (rape (Brassica napus); Rate 250 g/ha, Postemergence): 10
Plant response rating, Rape (rape (Brassica napus); [12]): 10
Plant response rating, Morningglory ([9]; Rate 62 g/ha, Postemergence): 10
Morningglory plant response rating ([9]; Rate 62 g/ha, Preemergence): 8
Morningglory plant response rating ([9]; Rate 125 g/ha, Preemergence): 9
Plant response rating, Morningglory ([9]; Rate 250 g/ha, Postemergence): 10
Plant response rating, Morningglory [9, 12]: 10
Plant response rating, Cocklebur ([10]; Rate 62 g/ha, Postemergence): 8
Cocklebur plant response rating ([10]; Rate 62 g/ha): 2
Plant response rating, Cocklebur ([10]; Rate 125 g/ha, Postemergence): 9
Cocklebur plant response rating ([10]; Rate 125 g/ha): 5
Plant response rating, Cocklebur ([10]; Rate 250 g/ha, Postemergence): 9
Plant response rating, Cocklebur [10, 12]: 8
Plant response rating, Velvetleaf ([11]; Rate 62 g/ha, Postemergence): 8
Velvetleaf plant response rating ([11]; Rate 62 g/ha, Preemergence): 8
Velvetleaf plant response rating ([11]; Rate 125 g/ha, Postemergence): 8
Plant response rating, Velvetleaf ([11]; Rate 125 g/ha, Preemergence): 10
Plant response rating, Velvetleaf ([11]; Rate 250 g/ha, Postemergence): 9
Plant response rating, Velvetleaf [11, 12]: 10

CCc1cnc(-n2ccc(C(F)(F)F)n2)nc1Cc1cccc(C(F)(F)F)c1 [Compound 46]
Plant response rating, Soybean (soybean (Glycine max); Rate 62 g/ha, Postemergence): 8
Soybean plant response rating (soybean (Glycine max); Rate 62 g/ha, Preemergence): 1
Soybean plant response rating (soybean (Glycine max); Rate 125 g/ha, Postemergence): 8
Plant response rating, Soybean (soybean (Glycine max); Rate 125 g/ha, Preemergence): 3
Plant response rating, Soybean (soybean (Glycine max); Rate 250 g/ha, Postemergence): 9
Plant response rating, Soybean (soybean (Glycine max); [12]): 7
Plant response rating, B. signalgrass ([1]; Rate 62 g/ha, Postemergence): 3
B. signalgrass plant response rating ([1]; Rate 62 g/ha): 9
Plant response rating, B. signalgrass ([1]; Rate 125 g/ha, Postemergence): 4
B. signalgrass plant response rating ([1]; Rate 125 g/ha): 9
Plant response rating, B. signalgrass ([1]; Rate 250 g/ha, Postemergence): 5
Plant response rating, B. signalgrass [1, 13]: 9
Plant response rating, Blackgrass ([2]; Rate 62 g/ha, Postemergence): 4
Blackgrass plant response rating ([2]; Rate 62 g/ha): 8
Plant response rating, Blackgrass ([2]; Rate 125 g/ha, Postemergence): 5
Blackgrass plant response rating ([2]; Rate 125 g/ha): 8
Plant response rating, Blackgrass ([2]; Rate 250 g/ha, Postemergence): 6
Plant response rating, Blackgrass [2, 12]: 10
Plant response rating, Giant foxtail ([3]; Rate 62 g/ha, Postemergence): 3
Giant foxtail plant response rating ([3]; Rate 62 g/ha, Preemergence): 9
Giant foxtail plant response rating ([3]; Rate 125 g/ha, Postemergence): 4
Giant foxtail plant response rating ([3]; Rate 125 g/ha, Preemergence): 9
Plant response rating, Giant foxtail ([3]; Rate 250 g/ha, Postemergence): 7
Plant response rating, Giant foxtail [3, 12]: 10
Plant response rating, Redroot pigweed ([4]; Rate 62 g/ha, Postemergence): 9
Redroot pigweed plant response rating ([4]; Rate 62 g/ha, Preemergence): 10
Redroot pigweed plant response rating ([4]; Rate 125 g/ha, Postemergence): 9
Redroot pigweed plant response rating ([4]; Rate 125 g/ha, Preemergence): 10
Plant response rating, Redroot pigweed ([4]; Rate 250 g/ha, Postemergence): 10
Plant response rating, Redroot pigweed [4, 12]: 10
Plant response rating, Sugarbeets ([5]; Rate 62 g/ha, Postemergence): 10
Sugarbeets plant response rating ([5]; Rate 62 g/ha, Preemergence): 10
Sugarbeets plant response rating ([5]; Rate 125 g/ha, Postemergence): 10
Plant response rating, Sugarbeets ([5]; Rate 125 g/ha, Preemergence): 10
Plant response rating, Sugarbeets ([5]; Rate 250 g/ha, Postemergence): 10
Plant response rating, Sugarbeets [5, 12]: 10
Plant response rating, Corn (corn (Zea mays); Rate 62 g/ha, Postemergence): 2
Corn plant response rating (corn (Zea mays); Rate 62 g/ha): 0
Plant response rating, Corn (corn (Zea mays); Rate 125 g/ha, Postemergence): 2
Corn plant response rating (corn (Zea mays); Rate 125 g/ha): 1
Plant response rating, Corn (corn (Zea mays); Rate 250 g/ha, Postemergence): 3
Plant response rating, Corn (corn (Zea mays); [12]): 3
Plant response rating, Crabgrass ([6]; Rate 62 g/ha, Postemergence): 6
Crabgrass plant response rating ([6]; Rate 62 g/ha): 9
Plant response rating, Crabgrass ([6]; Rate 125 g/ha, Postemergence): 6
Crabgrass plant response rating ([6]; Rate 125 g/ha): 9
Plant response rating, Crabgrass ([6]; Rate 250 g/ha, Postemergence): 8
Plant response rating, Crabgrass [6, 12]: 10
Plant response rating, Bedstraw ([7]; Rate 62 g/ha, Postemergence): 8
Bedstraw plant response rating ([7]; Rate 62 g/ha): 8
Plant response rating, Bedstraw ([7]; Rate 125 g/ha, Postemergence): 9
Bedstraw plant response rating ([7]; Rate 125 g/ha): 9
Plant response rating, Bedstraw ([7]; Rate 250 g/ha, Postemergence): 10
Plant response rating, Bedstraw [7, 12]: 10
Wheat plant response rating ([8]; Rate 62 g/ha, Postemergence): 3
Wheat plant response rating ([8]; Rate 62 g/ha, Preemergence): 1
Wheat plant response rating ([8]; Rate 125 g/ha, Postemergence): 3
Plant response rating, Wheat ([8]; Rate 125 g/ha, Preemergence): 3
Plant response rating, Wheat ([8]; Rate 250 g/ha, Postemergence): 4
Plant response rating, Wheat [8, 12]: 5
Plant response rating, Rape (rape (Brassica napus); Rate 62 g/ha, Postemergence): 9
Rape plant response rating (rape (Brassica napus); Rate 62 g/ha, Preemergence): 9
Rape plant response rating (rape (Brassica napus); Rate 125 g/ha, Postemergence): 9
Rape plant response rating (rape (Brassica napus); Rate 125 g/ha, Preemergence): 9
Plant response rating, Rape (rape (Brassica napus); Rate 250 g/ha, Postemergence): 9
Plant response rating, Rape (rape (Brassica napus); [12]): 10
Plant response rating, Morningglory ([9]; Rate 62 g/ha, Postemergence): 9
Morningglory plant response rating ([9]; Rate 62 g/ha, Preemergence): 10
Morningglory plant response rating ([9]; Rate 125 g/ha, Postemergence): 10
Morningglory plant response rating ([9]; Rate 125 g/ha, Preemergence): 10
Plant response rating, Morningglory ([9]; Rate 250 g/ha, Postemergence): 10
Plant response rating, Morningglory [9, 12]: 10
Plant response rating, Cocklebur ([10]; Rate 62 g/ha, Postemergence): 8
Cocklebur plant response rating ([10]; Rate 62 g/ha): 10
Plant response rating, Cocklebur ([10]; Rate 125 g/ha, Postemergence): 9
Plant response rating, Cocklebur ([10]; Rate 250 g/ha, Postemergence): 9
Plant response rating, Velvetleaf ([11]; Rate 62 g/ha, Postemergence): 9
Velvetleaf plant response rating ([11]; Rate 62 g/ha, Preemergence): 10
Velvetleaf plant response rating ([11]; Rate 125 g/ha, Postemergence): 9
Plant response rating, Velvetleaf ([11]; Rate 125 g/ha, Preemergence): 10
Plant response rating, Velvetleaf ([11]; Rate 250 g/ha, Postemergence): 9
Plant response rating, Velvetleaf [11, 12]: 10
